The results in this text go back to PubChem BioAssay (NCI).

One assay has as its system HCC-2998 colon. Put plainly: growth of human tumour cells (NCI), 48 h.
A further assay has as its system SN12C renal. The assay can be described thus: growth of human tumour cells (NCI), 48 h.

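Five concentrations, 48 hours, 96-well plates. TGI marks complete inhibition of growth.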

For the compound `Nc1cccc(OCC2CCCN3CCCCC23)c1` (stereo unspecified), the TGI with HCC-2998 colon worked out at 30 µM; with SN12C renal, 33.6 µM.

In the case of `Nc1ncc(C=O)c(NCC2(CO)CCC2)n1`, the TGI with HCC-2998 colon and in the assay on SN12C renal was more than 100 µM each time.

For the compound `O=CC1C(Cl)=Nc2nc3ccccc3n2C1c1ccccc1` (stereo unspecified), the TGI in the assay with HCC-2998 colon was determined as 34.8 µM; in the assay with SN12C renal, 44.8 µM.

As to `c1ccc(-c2c(-c3cccs3)[nH]c(-c3cccs3)c2-c2ccccn2)nc1`, the TGI came to 44.3 µM in the assay with HCC-2998 colon and 67.9 µM in the assay with SN12C renal.

Regarding `COC(=O)c1ccc(C)cc1CC1Cc2cccc(C)c2C1=O` (stereo unspecified), the TGI came to 29.3 µM in the assay on HCC-2998 colon and 78.2 µM in the assay with SN12C renal.

On to `CCNC1=C(NC(=O)c2ccccc2)C(=O)c2ccccc2C1=O`, for which the TGI with HCC-2998 colon and with SN12C renal was more than 100 µM in each case.

As for `COC(=O)Cc1c([C@H]2[C@H](CC(=O)OC)c3ccccc3N2S(=O)(=O)c2ccc(C)cc2)[nH]c2ccccc12`, the TGI in the assay with HCC-2998 colon and in the assay with SN12C renal was more than 100 µM throughout.

With `c1ccc(Cn2c(-c3ccc(-c4ccccc4)cc3)cc3ccccc32)cc1`, the TGI in the assay on HCC-2998 colon and in the assay with SN12C renal was more than 100 µM throughout.

Regarding `CCOC(=O)c1c(N2CCCC2)[nH]c(=O)c(C(c2ccc(Cl)c([N+](=O)[O-])c2)c2c(O)c(C(=O)OCC)c(N3CCCC3)[nH]c2=O)c1O`, the TGI with HCC-2998 colon and in the assay with SN12C renal was more than 100 µM each time.

For `S=C(N/N=C/c1ccccn1)N1CC2CCC(CC2)C1`, the figures for the TGI with HCC-2998 colon and in the assay on SN12C renal were 18.6 µM and 0.645 µM, respectively.

As to `CCOC(=O)/C(C(=S)NCc1ccccc1)=C(/N)N1CCCC1`, the TGI in the assay with HCC-2998 colon and with SN12C renal was more than 100 µM in each case.

With `c1ccc2c(c1)c1c3c(c4c(n32)=NCCN4)CCC1`, the TGI was more than 100 µM in the assay on HCC-2998 colon and 49.4 µM with SN12C renal.

For the compound `Cc1cc(S(=O)(=O)Nc2nnc3ccccn23)c(S)cc1Cl`, the TGI in the assay on HCC-2998 colon and in the assay with SN12C renal was more than 100 µM throughout.

Turning to `COC(=O)c1c(O)ccc2c1c1c(n2Cc2ccccc2OC)C(=O)c2ccccc2C1=O`, the TGI in the assay on HCC-2998 colon worked out at 15.7 µM; in the assay with SN12C renal, 25.4 µM.

Regarding `O=C1CCC2c3ccccc3NCN12` (stereo unspecified), the TGI in the assay on HCC-2998 colon and with SN12C renal was more than 100 µM throughout.

With `CS(=O)(=O)OCCCSCCSCCCOS(C)(=O)=O`, the TGI with HCC-2998 colon and in the assay on SN12C renal was more than 100 µM each time.

As to `COc1cc2cc3c4c(cc(OC)c(OC)c4c2cc1OC)CCN3C`, the TGI was 33.1 µM in the assay on HCC-2998 colon and more than 50 µM in the assay with SN12C renal.

In the case of `Nc1nc(Cl)c2ncn(Cc3cccc(CCl)c3)c2n1`, the TGI amounted to 4.86 µM with HCC-2998 colon and 22.4 µM with SN12C renal.

With `C=CCNC1=C2C[C@@H](C)C[C@H](OC)[C@H](O)[C@@H](C)/C=C(\C)[C@H](OC(N)=O)[C@@H](OC)/C=C\C=C(/C)C(=O)NC(=CC1=O)C2=O`, the TGI in the assay with HCC-2998 colon was 2.82 µM; in the assay with SN12C renal, 19.4 µM.

For `CCOC(=O)NN(C(=O)OCC)C(=C(C1=CCCCC1)N1CCOCC1)N(NC(=O)OCC)C(=O)OCC`, the TGI with HCC-2998 colon and in the assay on SN12C renal was more than 100 µM throughout.

`O=C1OCC(c2ccc(Cl)cc2)=C1Cl`: the TGI is 47.8 µM in the assay with HCC-2998 colon and 80.4 µM in the assay on SN12C renal.

For the compound `CCOC(=O)CCC(NC(=O)c1ccc(Oc2nc3c(N)cc(C(F)(F)F)cc3nc2-c2ccccc2)cc1)C(=O)OCC` (stereo unspecified), the TGI in the assay on HCC-2998 colon and in the assay with SN12C renal was more than 100 µM in each case.

On to `C=CCN1C[C@H](C)N([C@H](c2ccc(C(=O)N(CC)CC)cc2)c2cccc(OC)c2)C[C@H]1C`, for which the TGI in the assay with SN12C renal is more than 100 µM.

In turn, `CCC/C(Cl)=N/OC(NC(=O)OCC)(C(F)(F)F)C(F)(F)F` returned a TGI with SN12C renal of 32.6 µM.

Take `CCOC(=O)CSC1NC(C(=O)OC)CC1OC` (stereo unspecified): in the assay on HCC-2998 colon, the TGI is more than 100 µM.

`O=[N+]([O-])c1cc(N=Nc2c(O)ccc3cc(S(=O)(=O)O)ccc23)c(O)c([N+](=O)[O-])c1` yielded a TGI with SN12C renal of more than 100 µM.

In the assay with SN12C renal, `COc1c(C(C)(C)C)cc(CC2C(=O)C=CC2=O)cc1C(C)(C)C` yielded a TGI of more than 73 µM.

With `CN1C(=O)C(C(=O)Nc2ccccn2)C2C[C@@]1(C)Oc1ccccc12` (stereo partly specified), the TGI with HCC-2998 colon is more than 100 µM.

`COc1ccc(-c2csc(Cc3nc4c(Br)cc(Br)cc4c(=O)n3-c3ccc(OC)cc3)n2)cc1` had a TGI in the assay with HCC-2998 colon of more than 100 µM.

For `O=C(O)CCCNc1ncc2c(n1)-c1ccccc1OC2`, the TGI in the assay on SN12C renal was more than 100 µM.

The compound `COC(=O)c1c(C)c2c(c(C)c1C(=O)OC)-c1c(C)ccc3ccc(C)c-2c13` came in with a TGI with SN12C renal of more than 100 µM.

For the compound `N#CC(C#N)=c1c2ccccc2c(=C(C#N)C#N)c2ccccc12`, the TGI with SN12C renal came out at 30.7 µM.

In the assay on SN12C renal, `CN(C)c1ccc(/C=N/c2nc3cc4sc(/N=C/c5ccc(N(C)C)cc5)nc4cc3s2)cc1` registered a TGI of more than 100 µM.

Regarding `O=c1[nH][nH]c(=O)n1/N=C/c1ccccc1`, the TGI with SN12C renal is more than 100 µM.
